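Test compounds were applied to cells in 96-well plates for 48 hours at 5 doses. TGI: total growth inhibition.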
Columns and labels:
Experiment in all cases: NCI tumour cell line growth inhibition, 48 h
[1] = system: A549 NSCLC
[2] = system: NCI/ADR-RES ovarian
[3] = system: HCT-116 colon
[4] = system: NCI-H226 lung
[5] = system: COLO 205 colon
[6] = system: SK-OV-3 ovarian
[7] = system: SW-620 colon
[8] = system: EKVX NSCLC
[9] = system: KM12 colon
[10] = system: OVCAR-5 ovarian
[11] = system: SNB-75 CNS
[12] = system: NCI-H23 lung
[13] = system: UO-31 renal
[14] = system: OVCAR-8 ovarian
[15] = system: HCC-2998 colon
[16] = system: RPMI-8226 leukemia
[17] = system: T-47D breast
[18] = system: SR leukemia
[19] = system: MCF7 breast
[20] = system: SF-268 CNS
[21] = system: M14 melanoma
[22] = system: SK-MEL-2 melanoma
[23] = system: HL-60(TB) leukemia
[24] = system: 786-0 renal
[25] = system: IGROV1 ovarian
[26] = system: SNB-19 CNS
[27] = system: MALME-3M melanoma
[28] = system: OVCAR-3 ovarian
[29] = system: MDA-MB-435
[30] = system: MDA-N
[31] = system: HS 578T breast
[32] = system: NCI-H522 lung
[33] = system: BT-549 breast
[34] = system: UACC-62 melanoma
[35] = system: SF-539 CNS
[36] = system: NCI-H460 lung
[37] = system: PC-3 prostate
[38] = system: TK-10 renal
[39] = system: CCRF-CEM leukemia
[40] = system: OVCAR-4 ovarian
[41] = system: MOLT-4 leukemia
[42] = system: MDA-MB-231 breast
[43] = system: DU-145 prostate
[44] = system: RXF 393 renal
[45] = system: CAKI-1 renal
[46] = system: SF-295 CNS
[47] = system: SK-MEL-5 melanoma
[48] = system: ACHN renal
[49] = system: HOP-92 NSCLC
[50] = system: HCT-15 colon
[51] = system: K-562 leukemia
[52] = system: LOX IMVI melanoma
[53] = system: HOP-62 NSCLC
[54] = system: UACC-257 melanoma
[55] = system: HT29 colon
[56] = system: U251 CNS
[57] = system: SN12C renal
[58] = system: SK-MEL-28 melanoma
[59] = system: A498 renal

## O=C1NN=C2C=C(c3ccc(Cl)cc3)CC(c3cccc(Br)c3)C12 (configuration not stated)
[1]
  TGI: > 100 µM
[2]
  TGI: > 100 µM
[3]
  TGI: > 100 µM
[4]
  TGI: > 100 µM
[5]
  TGI: > 100 µM
[6]
  TGI: > 100 µM
[7]
  TGI: > 100 µM
[8]
  TGI: > 100 µM
[9]
  TGI: > 100 µM
[10]
  TGI: > 100 µM
[11]
  TGI: > 100 µM
[12]
  TGI: > 100 µM
[13]
  TGI: > 100 µM
[14]
  TGI: > 100 µM
[15]
  TGI: > 100 µM
[16]
  TGI: > 100 µM
[17]
  TGI: > 100 µM
[18]
  TGI: > 100 µM
[19]
  TGI: > 100 µM
[20]
  TGI: > 100 µM
[21]
  TGI: > 100 µM
[22]
  TGI: > 100 µM
[23]
  TGI: > 100 µM
[24]
  TGI: > 100 µM
[25]
  TGI: > 100 µM
[26]
  TGI: 57.7 µM
[27]
  TGI: > 100 µM
[28]
  TGI: > 100 µM
[29]
  TGI: > 100 µM
[30]
  TGI: > 100 µM
[31]
  TGI: 68.1 µM
[32]
  TGI: > 100 µM
[33]
  TGI: > 100 µM
[34]
  TGI: > 100 µM
[35]
  TGI: > 100 µM
[36]
  TGI: > 100 µM
[37]
  TGI: > 100 µM
[38]
  TGI: > 100 µM
[39]
  TGI: 56.5 µM
[40]
  TGI: > 100 µM
[41]
  TGI: > 100 µM
[42]
  TGI: > 100 µM
[43]
  TGI: > 100 µM
[44]
  TGI: > 100 µM
[45]
  TGI: > 100 µM
[46]
  TGI: > 100 µM
[47]
  TGI: > 100 µM
[48]
  TGI: > 100 µM
[49]
  TGI: 31.3 µM
[50]
  TGI: 61.7 µM
[51]
  TGI: > 100 µM
[52]
  TGI: > 100 µM
[53]
  TGI: > 100 µM
[54]
  TGI: 67 µM
[55]
  TGI: > 100 µM
[56]
  TGI: > 100 µM
[57]
  TGI: > 100 µM

## Cc1nn(C(=O)c2ccccc2O)c2c1C(c1ccccc1O)SC(N)=N2 (configuration not stated)
[1]
  TGI: > 10 µM
[2]
  TGI: > 10 µM
[3]
  TGI: > 10 µM
[58]
  TGI: > 10 µM
[4]
  TGI: 8.96 µM
[5]
  TGI: > 10 µM
[6]
  TGI: > 10 µM
[7]
  TGI: > 10 µM
[8]
  TGI: > 10 µM
[9]
  TGI: > 10 µM
[10]
  TGI: > 10 µM
[11]
  TGI: > 10 µM
[12]
  TGI: > 10 µM
[14]
  TGI: > 10 µM
[15]
  TGI: > 10 µM
[16]
  TGI: 8.19 µM
[17]
  TGI: > 10 µM
[18]
  TGI: 5.4 µM
[19]
  TGI: > 10 µM
[20]
  TGI: > 10 µM
[21]
  TGI: > 10 µM
[22]
  TGI: > 10 µM
[23]
  TGI: 5.02 µM
[24]
  TGI: > 10 µM
[25]
  TGI: > 10 µM
[27]
  TGI: > 10 µM
[28]
  TGI: > 10 µM
[29]
  TGI: > 10 µM
[30]
  TGI: > 10 µM
[31]
  TGI: > 10 µM
[32]
  TGI: > 10 µM
[33]
  TGI: > 10 µM
[34]
  TGI: > 10 µM
[35]
  TGI: 3.53 µM
[36]
  TGI: > 10 µM
[37]
  TGI: > 10 µM
[38]
  TGI: > 10 µM
[39]
  TGI: 9.01 µM
[40]
  TGI: > 10 µM
[41]
  TGI: > 10 µM
[42]
  TGI: > 10 µM
[43]
  TGI: > 10 µM
[44]
  TGI: > 10 µM
[45]
  TGI: > 10 µM
[46]
  TGI: > 10 µM
[47]
  TGI: > 10 µM
[48]
  TGI: > 10 µM
[49]
  TGI: > 10 µM
[50]
  TGI: > 10 µM
[51]
  TGI: > 10 µM
[52]
  TGI: > 10 µM
[53]
  TGI: > 10 µM
[54]
  TGI: > 10 µM
[55]
  TGI: > 10 µM
[56]
  TGI: > 10 µM
[57]
  TGI: > 10 µM

## COC(=O)C1(NC(=O)C(CC(=O)OCc2ccccc2)NC(=O)OCc2ccccc2)CCCCCCC1 (configuration not stated)
[1]
  TGI: > 100 µM
[2]
  TGI: > 100 µM
[3]
  TGI: > 100 µM
[58]
  TGI: > 100 µM
[4]
  TGI: 90.9 µM
[5]
  TGI: 82.7 µM
[6]
  TGI: > 100 µM
[7]
  TGI: > 100 µM
[8]
  TGI: > 100 µM
[9]
  TGI: > 100 µM
[10]
  TGI: > 100 µM
[11]
  TGI: > 100 µM
[12]
  TGI: > 100 µM
[13]
  TGI: > 100 µM
[14]
  TGI: > 100 µM
[59]
  TGI: 67.7 µM
[16]
  TGI: 39.2 µM
[17]
  TGI: 94.2 µM
[18]
  TGI: > 100 µM
[19]
  TGI: > 100 µM
[20]
  TGI: > 100 µM
[21]
  TGI: > 100 µM
[23]
  TGI: 51.9 µM
[24]
  TGI: > 100 µM
[25]
  TGI: > 100 µM
[26]
  TGI: > 100 µM
[28]
  TGI: > 100 µM
[29]
  TGI: > 100 µM
[30]
  TGI: > 100 µM
[31]
  TGI: > 100 µM
[32]
  TGI: > 100 µM
[33]
  TGI: > 100 µM
[34]
  TGI: 63.2 µM
[35]
  TGI: > 100 µM
[36]
  TGI: > 100 µM
[37]
  TGI: > 100 µM
[38]
  TGI: > 100 µM
[40]
  TGI: > 100 µM
[41]
  TGI: > 100 µM
[42]
  TGI: > 100 µM
[43]
  TGI: > 100 µM
[44]
  TGI: > 100 µM
[45]
  TGI: > 100 µM
[46]
  TGI: > 100 µM
[47]
  TGI: 29.4 µM
[48]
  TGI: > 100 µM
[49]
  TGI: > 100 µM
[50]
  TGI: > 100 µM
[51]
  TGI: > 100 µM
[52]
  TGI: > 100 µM
[53]
  TGI: > 100 µM
[55]
  TGI: > 100 µM
[56]
  TGI: > 100 µM
[57]
  TGI: > 100 µM
